Results taken from PubChem BioAssay (NCI).
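A five-concentration, 48-hour dose response in 96-well plates underlies each endpoint, interpolated linearly between surrounding concentrations. Abbreviation: GI50, concentration required for 50% inhibition of growth. TGI: total growth inhibition.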

How the values were obtained:
Assay in all cases: inhibition of tumour cell growth, NCI panel, 48 h
SR leukemia = tested on: SR leukemia
OVCAR-3 ovarian = tested on: OVCAR-3 ovarian
TK-10 renal = tested on: TK-10 renal
SN12C renal = tested on: SN12C renal
DU-145 prostate = tested on: DU-145 prostate
MCF7 breast = tested on: MCF7 breast
SK-OV-3 ovarian = tested on: SK-OV-3 ovarian
CAKI-1 renal = tested on: CAKI-1 renal
SK-MEL-28 melanoma = tested on: SK-MEL-28 melanoma
MOLT-4 leukemia = tested on: MOLT-4 leukemia

Row | Structure (SMILES) | TGI (SR leukemia) | TGI (OVCAR-3 ovarian) | TGI (TK-10 renal) | TGI (SN12C renal) | TGI (DU-145 prostate) | TGI (MCF7 breast) | TGI (SK-OV-3 ovarian) | TGI (CAKI-1 renal) | TGI (SK-MEL-28 melanoma) | TGI (MOLT-4 leukemia) | GI50 (SR leukemia) | GI50 (OVCAR-3 ovarian) | GI50 (TK-10 renal) | GI50 (SN12C renal) | GI50 (DU-145 prostate) | GI50 (MCF7 breast) | GI50 (SK-OV-3 ovarian) | GI50 (CAKI-1 renal) | GI50 (SK-MEL-28 melanoma) | GI50 (MOLT-4 leukemia)
1 | C/C(N=NC(=S)N1CCCCCC1)=C1\C=CC=CN1O | > 100 µM | 11.8 µM | > 100 µM | > 100 µM | > 100 µM | > 100 µM | 98.2 µM | > 89.3 µM | > 96.3 µM | 20.1 µM | – | – | – | – | – | – | – | – | – | –
2 | CCOc1cccc(/C=N/NC(=O)Cc2ccc(Nc3ccnc(C(F)(F)F)c3)cc2)c1O | 10.8 µM | 30.4 µM | 44.5 µM | > 100 µM | > 100 µM | > 100 µM | > 100 µM | 52.2 µM | > 100 µM | 4.42 µM | 0.316 µM | 0.394 µM | 4.01 µM | 4.58 µM | 2.06 µM | 2.39 µM | 3.3 µM | 2.54 µM | 2.97 µM | 0.499 µM
3 | COc1ccc(CNC(=O)c2ccc(-c3cc(-c4nnc(C)o4)ccc3C)cc2)cc1 | > 25 µM | > 25 µM | > 25 µM | > 25 µM | > 25 µM | > 25 µM | > 25 µM | > 25 µM | > 25 µM | > 25 µM | > 25 µM | 17.1 µM | > 25 µM | > 25 µM | > 25 µM | 9.86 µM | > 25 µM | 19.5 µM | > 25 µM | 15.6 µM
4 | O=C1Nc2ccc(Br)cc2C1=Nc1ccc(Cl)cc1 | > 100 µM | 40 µM | 51.4 µM | 31.2 µM | > 100 µM | 27.1 µM | > 100 µM | > 100 µM | 82.5 µM | > 100 µM | – | – | – | – | – | – | – | – | – | –
5 | COc1cccc(C2CC(=O)Nc3cc4c(cc32)CCC4)c1OC (centres undefined) | 10.8 µM | 5.9 µM | > 100 µM | 34.8 µM | 16.1 µM | 18.4 µM | 20 µM | 56.2 µM | 28.3 µM | 10.2 µM | 2.87 µM | 2.37 µM | 12.4 µM | 5.4 µM | 3.48 µM | 3.22 µM | 3.73 µM | 3.36 µM | 5.33 µM | 3.16 µM
6 | Cc1ccc(S(=O)c2ccc([N+](=O)[O-])c3nonc23)cc1 (centres undefined) | > 100 µM | 4.78 µM | 5.51 µM | 31.3 µM | 20.9 µM | 21.9 µM | 34.3 µM | 11.3 µM | 23.3 µM | 6.96 µM | 3.39 µM | 2.23 µM | 2.53 µM | 15 µM | 7.87 µM | 5.53 µM | 18.8 µM | 3.12 µM | 9.15 µM | 2.64 µM
7 | NC(=O)c1c(NC(=O)c2cccc(C(F)(F)F)c2)sc2c1CCC(=O)C2 | > 100 µM | 1.34 µM | 13.3 µM | > 100 µM | > 100 µM | > 100 µM | 8.39 µM | 7.29 µM | 15.2 µM | > 20.2 µM | 0.424 µM | 0.364 µM | 0.753 µM | 0.392 µM | 3.73 µM | 0.203 µM | 2.8 µM | 0.351 µM | 1 µM | 0.404 µM
8 | CC(=O)c1c(Nc2ccc(F)c(F)c2F)[nH]c2c(F)cc(F)cc2c1=O | > 45.9 µM | 11.6 µM | 47.8 µM | 3.45 µM | > 100 µM | 13.5 µM | 3.24 µM | 1.61 µM | 3.57 µM | – | 0.45 µM | 0.311 µM | 0.503 µM | 0.277 µM | 0.403 µM | 0.283 µM | 0.297 µM | 0.218 µM | 0.356 µM | 0.425 µM
9 | COc1ccc(-c2cn(-c3cc(OC)c(OC)c(OC)c3)c(=O)n2-c2ccccc2)cc1 | > 100 µM | > 100 µM | > 100 µM | > 100 µM | > 100 µM | > 100 µM | > 100 µM | > 100 µM | > 100 µM | > 100 µM | 50.1 µM | 43.1 µM | > 100 µM | 84.3 µM | > 100 µM | 86 µM | > 100 µM | > 100 µM | > 100 µM | > 100 µM
10 | COc1ccc(-c2nn(-c3cccc(Cl)c3)cc2-c2cc(-c3cccs3)no2)cc1 | 12.1 µM | 25 µM | 43.8 µM | 18.7 µM | 35.8 µM | 16.9 µM | 44.1 µM | 6.02 µM | 17.8 µM | 19.5 µM | 3.03 µM | 5.07 µM | 5.21 µM | 3.48 µM | 7.08 µM | 3.53 µM | 8.89 µM | 2.05 µM | 4.93 µM | 2.96 µM
11 | COc1ccc(-c2nn(-c3cccc(Cl)c3)cc2/C=C2\C(=N)N(c3ccccc3)N=C2N)cc1 | 15.1 µM | 20.4 µM | > 95.8 µM | > 100 µM | > 47.9 µM | 33.5 µM | > 100 µM | 0.844 µM | > 100 µM | 22.3 µM | 1.04 µM | 3.09 µM | 7.77 µM | 3.33 µM | 1.37 µM | 2.2 µM | 34.7 µM | 0.229 µM | 6.59 µM | 0.511 µM
12 | C=C[C@@]1(C)CC(=O)[C@]2(O)[C@@]3(C)[C@@H](O)CCC(C)(C)[C@@H]3[C@H](O)[C@@H](OC(C)=O)[C@@]2(C)O1 | > 100 µM | > 100 µM | > 100 µM | > 100 µM | > 100 µM | > 100 µM | > 100 µM | > 100 µM | > 100 µM | > 100 µM | – | – | – | – | – | – | – | – | – | –
13 | Nc1ccc2c(SCC(=O)Nc3ccccc3-c3ccccc3NC(=O)CSc3c4ccccc4nc4cc(N)ccc34)c3ccccc3nc2c1 | > 100 µM | 70.4 µM | 75.3 µM | > 87.2 µM | > 58.7 µM | > 100 µM | > 100 µM | > 83.5 µM | 52.5 µM | > 44.1 µM | – | – | – | – | – | – | – | – | – | –
